Test results reported in patent publication US7592373B2 (Boehringer Ingelheim International GmbH, priority 2003, dated 2009).

system: rats; test: not given; conditions: cited from earlier work

Structure (SMILES)	effects in behavioral experiments
COCC1=C(C(=O)OC)[C@H](c2ccc(F)c(F)c2)N(C(=O)NCCCN2CCC(c3cccc(NC(C)=O)c3)CC2)C(=O)N1 [SNAP-7941]	anxiolytic and antidepressant effects

biological target: T1, hMCH-1R (Homo sapiens, UniProt Q99705); test: MCH-1 receptor binding test (125I-MCH binding to hMCH-1R transfected cell membranes); conditions: membranes of hMCH-1R transfected CHO/Galpha16 cells
T1 construct: expressed in transfected cells
T1 sequence (Q99705 whole entry): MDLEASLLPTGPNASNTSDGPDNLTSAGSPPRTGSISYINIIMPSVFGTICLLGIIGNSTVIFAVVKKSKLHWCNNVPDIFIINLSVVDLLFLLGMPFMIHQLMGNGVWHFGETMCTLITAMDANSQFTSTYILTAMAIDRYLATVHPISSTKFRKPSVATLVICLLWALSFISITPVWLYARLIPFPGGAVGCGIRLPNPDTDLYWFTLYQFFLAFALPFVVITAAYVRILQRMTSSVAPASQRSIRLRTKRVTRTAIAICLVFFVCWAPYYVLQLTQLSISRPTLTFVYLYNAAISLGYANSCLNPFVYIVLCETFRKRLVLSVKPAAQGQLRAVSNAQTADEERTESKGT
Description: After the incubation the reaction is filtered using a cell harvester through 0.5% PEI treated fiberglass filters (GF/B, Unifilter Packard). The membrane-bound radioactivity retained on the filter is then determined after the addition of scintillator substance (Packard Microscint 20) in a measuring device (TopCount of Packard). […] The analysis of the concentration binding curve is carried out on the assumption of one receptor binding site.

IC50	Structure (SMILES)
7.5 nM	CN(C(=O)C#Cc1ccc(CN2CCCC2)cc1)c1ccc(-c2ccc(Cl)cc2)cc1 [Example 1.23, 3-(4-pyrrolidin-1-ylmethylphenyl)propynoic acid-(4′-chlorobiphenyl-4-yl)methylamide]
50 nM	CCN(CC)CCOc1ccc(NC(=O)C#Cc2ccc(Cl)cc2Cl)c(Cl)c1 [Example 4.8, 3-(2,4-dichlorophenyl)propynoic acid-[2-chloro-4-(2-diethylaminoethoxy)phenyl]amide]
20 nM	COc1ccc(-c2ccc(NC(=O)/C=C/c3ccc(CN4CCCC4)cc3)cc2)cc1 [Example 5.1, (E)-N-(4′-methoxybiphenyl-4-yl)-3-(4-pyrrolidin-1-ylmethylphenyl)acrylamide]

system: not given; test: not given; conditions: animals treated with the antagonist; cited from earlier work

Structure (SMILES)	body weight in long term trials
COCC1=C(C(=O)OC)[C@H](c2ccc(F)c(F)c2)N(C(=O)NCCCN2CCC(c3cccc(NC(C)=O)c3)CC2)C(=O)N1 [SNAP-7941]	lose significant amounts of weight

system: not given; test: not given; conditions: not given

Structure (SMILES)	melting point
CN(Cc1ccc(CCC(=O)Nc2ccc(-c3ccc(Cl)cc3)cc2)cc1)C1CCOCC1 [Example 6.12, N-(4′-chlorobiphenyl-4-yl)-3-(4-{[methyl-(tetrahydropyran-4-yl)amino]methyl}phenyl)propionamide]	167 to 173 °C
CN(Cc1ccc(CCC(=O)Nc2ccc(-c3ccc(Cl)cc3)cc2)cc1)CC1CC1 [Example 6.13, N-(4′-chlorobiphenyl-4-yl)-3-{4-[(cyclopropylmethylmethylamino)methyl]phenyl}propionamide]	156 °C
COCCN(Cc1ccc(CCC(=O)Nc2ccc(-c3ccc(Cl)cc3)cc2)cc1)CC(C)(C)O [Example 6.14, N-(4′-chlorobiphenyl-4-yl)-3-(4-{[(2-hydroxy-2-methylpropyl)-(2-methoxyethyl)amino]methyl}phenyl)propionamide]	108 to 109 °C
O=C(CCc1ccc(CNCC2CC2)cc1)Nc1ccc(-c2ccc(Cl)cc2)cc1 [Example 6.15, N-(4′-chlorobiphenyl-4-yl)-3-{4-[(cyclopropylmethylamino)methyl]phenyl}propionamide]	191 to 192 °C
COCCN(C)Cc1ccc(CCC(=O)Nc2ccc(-c3ccc(Cl)cc3)cc2)cc1 [Example 6.17, N-(4′-chlorobiphenyl-4-yl)-3-(4-{[(2-methoxyethyl)methylamino]methyl}phenyl)propionamide]	138 °C
CN(Cc1ccccc1)Cc1ccc(CCC(=O)Nc2ccc(-c3ccc(Cl)cc3)cc2)cc1 [Example 6.18, 3-{4-[(benzylmethylamino)methyl]phenyl}-N-(4′-chlorobiphenyl-4-yl)propionamide]	174 to 175 °C
CN(Cc1ccc(CCC(=O)Nc2ccc(-c3ccc(Cl)cc3)cc2)cc1)CC1CCOCC1 [Example 6.19, N-(4′-chlorobiphenyl-4-yl)-3-(4-{[methyl-(tetrahydropyran-4-ylmethyl)amino]methyl}phenyl)propionamide]	162 to 163 °C
CN(CCOc1ccccc1)Cc1ccc(CCC(=O)Nc2ccc(-c3ccc(Cl)cc3)cc2)cc1 [Example 6.20, N-(4′-chlorobiphenyl-4-yl)-3-(4-{[methyl-(2-phenoxyethyl)amino]methyl}phenyl)propionamide]	122 to 124 °C
O=C(CCc1ccc(CNCC2CCCCC2)cc1)Nc1ccc(-c2ccc(Cl)cc2)cc1 [Example 6.22, N-(4′-chlorobiphenyl-4-yl)-3-{4-[(cyclohexylmethylamino)methyl]phenyl}propionamide]	201 to 204 °C
CN(CCCN)Cc1ccc(CCC(=O)Nc2ccc(-c3ccc(Cl)cc3)cc2)cc1 [Example 6.27, 3-(4-{[(3-aminopropyl)methylamino]methyl}phenyl)-N-(4′-chlorobiphenyl-4-yl)propionamide]	165 °C
CN(Cc1ccncc1)Cc1ccc(CCC(=O)Nc2ccc(-c3ccc(Cl)cc3)cc2)cc1 [Example 6.32, N-(4′-chlorobiphenyl-4-yl)-3-{4-[(methylpyridin-4-ylmethylamino)methyl]phenyl}propionamide]	102 °C
CN(Cc1ccc(CCC(=O)Nc2ccc(-c3ccc(Cl)cc3)cc2)cc1)Cc1cccnc1 [Example 6.33, N-(4′-chlorobiphenyl-4-yl)-3-{4-[(methylpyridin-3-ylmethylamino)methyl]phenyl}propionamide]	168 to 169 °C
O=C(CCc1ccc(CNCCC2CCCCC2)cc1)Nc1ccc(-c2ccc(Cl)cc2)cc1 [Example 6.35, N-(4′-chlorobiphenyl-4-yl)-3-{4-[(cyclohexylethylamino)methyl]phenyl}propionamide]	149 to 150.5 °C
O=C(CCc1ccc(CNCc2ccccc2)cc1)Nc1ccc(-c2ccc(Cl)cc2)cc1 [Example 6.38, 3-[4-(benzylaminomethyl)phenyl]-N-(4′-chlorobiphenyl-4-yl)propionamide]	176 °C
O=C(CCc1ccc(CNC2CCCCC2)cc1)Nc1ccc(-c2ccc(Cl)cc2)cc1 [Example 6.39, N-(4′-chlorobiphenyl-4-yl)-3-(4-cyclohexylaminomethylphenyl)propionamide]	208 °C
CC(C)N(Cc1ccc(CCC(=O)Nc2ccc(-c3ccc(Cl)cc3)cc2)cc1)C1CCCCC1 [Example 6.40, N-(4′-chlorobiphenyl-4-yl)-3-{4-[(cyclohexylisopropylamino)methyl]phenyl}propionamide]	165 °C
O=C(CCc1ccc(CNC2CCCC2)cc1)Nc1ccc(-c2ccc(Cl)cc2)cc1 [Example 6.41, N-(4′-chlorobiphenyl-4-yl)-3-(4-cyclopentylaminomethylphenyl)propionamide]	196 to 197 °C
CCN(Cc1ccc(CCC(=O)Nc2ccc(-c3ccc(Cl)cc3)cc2)cc1)CC(C)(C)O [Example 6.42, N-(4′-chlorobiphenyl-4-yl)-3-(4-{[ethyl-(2-hydroxy-2-methylpropyl)amino]methyl}phenyl)propionamide]	135 °C
O=C(C#Cc1ccc(C(F)(F)F)cc1Cl)Nc1ccc2nc(N3CCCCC3)ccc2c1 [Example 7.1, 3-(2-chloro-4-trifluoromethylphenyl)propynoic acid-(2-piperidin-1-ylquinolin-6-yl)amide]	176 to 179 °C
CC(C)Nc1ccc2cc(NC(=O)C#Cc3ccc(C(F)(F)F)cc3Cl)ccc2n1 [Example 7.2, 3-(2-chloro-4-trifluoromethylphenyl)propynoic acid-(2-isopropylaminoquinolin-6-yl)amide]	57 to 60 °C

The next lines start with the values.

melting point	Structure (SMILES)
161 to 164 °C	CN(C(=O)C#Cc1ccc(CN2CCCC2)cc1)c1ccc(-c2ccc(Cl)cc2)cc1 [Example 1.23, 3-(4-pyrrolidin-1-ylmethylphenyl)propynoic acid-(4′-chlorobiphenyl-4-yl)methylamide]
199 to 200 °C	COc1ccc(-c2ccc(NC(=O)/C=C/c3ccc(CN4CCCC4)cc3)cc2)cc1 [Example 5.1, (E)-N-(4′-methoxybiphenyl-4-yl)-3-(4-pyrrolidin-1-ylmethylphenyl)acrylamide]
192 °C	CC1(O)CCN(Cc2ccc(CCC(=O)Nc3ccc(-c4ccc(Cl)cc4)cc3)cc2)CC1 [Example 6.9, N-(4′-chlorobiphenyl-4-yl)-3-[4-(4-hydroxy-4-methylpiperidin-1-ylmethyl)phenyl]propionamide]
183 to 184 °C	O=C(CCc1ccc(CN2CCCC2)cc1)Nc1ccc(-c2ccc(Cl)cc2)cc1 [Example 6.11, N-(4′-chlorobiphenyl-4-yl)-3-(4-pyrrolidin-1-ylmethylphenyl)propionamide]
177 °C	O=C(CCc1ccc(CN2CCN3CCCC3C2)cc1)Nc1ccc(-c2ccc(Cl)cc2)cc1 (stereo not shown) [Example 6.16, N-(4′-chlorobiphenyl-4-yl)-3-[4-(hexahydropyrrolo[1,2-a]pyrazin-2-ylmethyl)phenyl]propionamide]
158.5 to 160.5 °C	CC1CN(Cc2ccc(CCC(=O)Nc3ccc(-c4ccc(Cl)cc4)cc3)cc2)CC(C)O1 (stereo not shown) [Example 6.21, N-(4′-chlorobiphenyl-4-yl)-3-[4-(2,6-dimethylmorpholin4-ylmethyl)phenyl]propionamide]
168.8 °C	O=C(CCc1ccc(CN2CCC(N3CCCCC3)C2)cc1)Nc1ccc(-c2ccc(Cl)cc2)cc1 (stereo not shown) [Example 6.25, N-(4′-chlorobiphenyl-4-yl)-3-[4-(3-piperidin-1-ylpyrrolidin-1-ylmethyl)phenyl]propionamide]
164 to 169 °C	C[C@@H]1C[C@H](C)CN(Cc2ccc(CCC(=O)Nc3ccc(-c4ccc(Cl)cc4)cc3)cc2)C1 [Example 6.26, N-(4′-chlorobiphenyl-4-yl)-3-[4-((3S,5R)-3,5-dimethylpiperidin-1-ylmethyl)phenyl]propionamide]
201.5 °C	O=C(CCc1ccc(CN2CCC3(CCCC3)CC2)cc1)Nc1ccc(-c2ccc(Cl)cc2)cc1 [Example 6.28, 3-[4-(8-azaspiro[4.5]dec-8-ylmethyl)phenyl]-N-(4′-chlorobiphenyl-4-yl)propionamide]
169 to 170 °C	O=C(CCc1ccc(CN2CC[C@@H](O)C2)cc1)Nc1ccc(-c2ccc(Cl)cc2)cc1 [Example 6.29, N-(4′-chlorobiphenyl-4-yl)-3-[4-((R)-3-hydroxypyrrolidin-1-ylmethyl)phenyl]propionamide]
119 °C	CN(C(=O)CCc1ccc(CN2CCC3(CCCC3)CC2)cc1)c1ccc(-c2ccc(Cl)cc2)cc1 [Example 6.45, 3-[4-(8-azaspiro[4.5]dec-8-ylmethyl)phenyl]-N-(4′-chlorobiphenyl-4-yl)-N-methylpropionamide]
187 to 188 °C	O=C(Nc1ccc(-c2ccc(Cl)cc2)cc1)C1CC1c1ccc(CN2CCOCC2)cc1 (stereo not shown) [Example 6.217, 2-(4-morpholin-4-ylmethylphenyl)cyclopropanecarboxylic acid (4′-chlorobiphenyl-4-yl)amide]
